Results: PubChem BioAssay (NCI)
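Compound exposure: 48 hours, 5 concentrations, 96-well plates. The concentration for full growth arrest is given as TGI.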

Legend:
Experiment in all cases: NCI anticancer screen, dose series, 48 h
[1] = test system: MOLT-4 leukemia
[2] = test system: HCT-15 colon
[3] = test system: NCI-H460 lung
[4] = test system: T-47D breast
[5] = test system: UO-31 renal
[6] = test system: HOP-92 NSCLC
[7] = test system: SK-OV-3 ovarian
[8] = test system: NCI-H23 lung
[9] = test system: OVCAR-5 ovarian
[10] = test system: UACC-62 melanoma
[11] = test system: NCI/ADR-RES ovarian
[12] = test system: U251 CNS
[13] = test system: SR leukemia
[14] = test system: NCI-H522 lung
[15] = test system: SK-MEL-28 melanoma
[16] = test system: MDA-N
[17] = test system: SNB-75 CNS
[18] = test system: MALME-3M melanoma
[19] = test system: HCC-2998 colon
[20] = test system: K-562 leukemia
[21] = test system: HS 578T breast
[22] = test system: SF-295 CNS
[23] = test system: SK-MEL-2 melanoma
[24] = test system: KM12 colon
[25] = test system: HT29 colon
[26] = test system: HCT-116 colon
[27] = test system: A498 renal
[28] = test system: OVCAR-4 ovarian
[29] = test system: OVCAR-3 ovarian
[30] = test system: SW-620 colon
[31] = test system: SK-MEL-5 melanoma
[32] = test system: 786-0 renal
[33] = test system: NCI-H226 lung
[34] = test system: RXF 393 renal
[35] = test system: LOX IMVI melanoma
[36] = test system: OVCAR-8 ovarian
[37] = test system: TK-10 renal
[38] = test system: M14 melanoma
[39] = test system: SN12C renal
[40] = test system: SNB-19 CNS
[41] = test system: EKVX NSCLC
[42] = test system: UACC-257 melanoma
[43] = test system: MCF7 breast
[44] = test system: BT-549 breast
[45] = test system: MDA-MB-231 breast
[46] = test system: HL-60(TB) leukemia
[47] = test system: MDA-MB-435
[48] = test system: SF-268 CNS
[49] = test system: A549 NSCLC
[50] = test system: HOP-62 NSCLC
[51] = test system: RPMI-8226 leukemia
[52] = test system: CCRF-CEM leukemia
[53] = test system: IGROV1 ovarian
[54] = test system: PC-3 prostate
[55] = test system: DU-145 prostate
[56] = test system: CAKI-1 renal
[57] = test system: SF-539 CNS
[58] = test system: ACHN renal
[59] = test system: COLO 205 colon

## COc1ccc(OC)c(C2CCc3nc4nc(N)nc(N)c4cc3C2)c1 (stereo unspecified)
[1]
  TGI: 5.3 µM
[2]
  TGI: 47.5 µM
[3]
  TGI: 19.2 µM
[4]
  TGI: 3.78 µM
[5]
  TGI: 15.8 µM
[6]
  TGI: 5.76 µM
[7]
  TGI: 15.3 µM
[8]
  TGI: 38.3 µM
[9]
  TGI: 23.3 µM
[10]
  TGI: 4.18 µM
[11]
  TGI: > 100 µM
[12]
  TGI: 3.28 µM
[13]
  TGI: 7.06 µM
[14]
  TGI: 4.94 µM
[15]
  TGI: 6.34 µM
[16]
  TGI: 5.04 µM
[17]
  TGI: 4.1 µM
[18]
  TGI: 3.57 µM
[19]
  TGI: 3.16 µM
[20]
  TGI: 6.35 µM
[21]
  TGI: 16.1 µM
[22]
  TGI: 26.5 µM
[23]
  TGI: 4.35 µM
[24]
  TGI: 5.14 µM
[25]
  TGI: 10.8 µM
[26]
  TGI: 3.46 µM
[27]
  TGI: 27.5 µM
[28]
  TGI: 4.14 µM
[29]
  TGI: 3.54 µM
[30]
  TGI: 9.12 µM
[31]
  TGI: 18.6 µM
[32]
  TGI: 6.91 µM
[33]
  TGI: 30.7 µM
[34]
  TGI: 7.45 µM
[35]
  TGI: 8.14 µM
[36]
  TGI: 6.93 µM
[37]
  TGI: 23.6 µM
[38]
  TGI: 3.44 µM
[39]
  TGI: 3.33 µM
[40]
  TGI: 6.01 µM
[41]
  TGI: 28.1 µM
[42]
  TGI: 6.1 µM
[43]
  TGI: 3.68 µM
[44]
  TGI: 16.6 µM
[45]
  TGI: 5.4 µM
[46]
  TGI: 7.86 µM
[47]
  TGI: 4.09 µM
[48]
  TGI: 10.4 µM
[49]
  TGI: 31.4 µM
[50]
  TGI: 5.04 µM
[51]
  TGI: 19 µM
[52]
  TGI: 9.44 µM
[53]
  TGI: 26.7 µM
[54]
  TGI: 11.5 µM
[55]
  TGI: 17.8 µM
[56]
  TGI: > 56.2 µM
[57]
  TGI: 17.8 µM
[58]
  TGI: 29.5 µM
[59]
  TGI: 17.9 µM

## COc1ccc2[nH]c(CCNC(=O)c3cc([N+](=O)[O-])cc([N+](=O)[O-])c3)cc2c1
[1]
  TGI: > 100 µM
[2]
  TGI: > 100 µM
[3]
  TGI: > 100 µM
[4]
  TGI: 90.6 µM
[5]
  TGI: > 100 µM
[6]
  TGI: 93.8 µM
[7]
  TGI: > 100 µM
[8]
  TGI: > 100 µM
[10]
  TGI: > 100 µM
[11]
  TGI: > 100 µM
[12]
  TGI: 78.1 µM
[13]
  TGI: > 100 µM
[15]
  TGI: > 100 µM
[16]
  TGI: > 100 µM
[17]
  TGI: 46.2 µM
[18]
  TGI: > 100 µM
[20]
  TGI: > 100 µM
[21]
  TGI: > 100 µM
[23]
  TGI: > 100 µM
[24]
  TGI: > 100 µM
[25]
  TGI: > 100 µM
[26]
  TGI: > 100 µM
[27]
  TGI: > 100 µM
[28]
  TGI: > 100 µM
[29]
  TGI: > 100 µM
[30]
  TGI: > 100 µM
[31]
  TGI: > 100 µM
[32]
  TGI: > 100 µM
[33]
  TGI: > 100 µM
[34]
  TGI: 56.9 µM
[35]
  TGI: > 100 µM
[36]
  TGI: > 100 µM
[37]
  TGI: > 100 µM
[38]
  TGI: > 100 µM
[39]
  TGI: > 100 µM
[40]
  TGI: > 100 µM
[42]
  TGI: > 100 µM
[43]
  TGI: > 100 µM
[44]
  TGI: > 100 µM
[45]
  TGI: > 100 µM
[46]
  TGI: > 100 µM
[47]
  TGI: > 100 µM
[48]
  TGI: > 100 µM
[49]
  TGI: > 100 µM
[50]
  TGI: 60.6 µM
[51]
  TGI: > 100 µM
[52]
  TGI: > 100 µM
[53]
  TGI: > 100 µM
[54]
  TGI: > 100 µM
[55]
  TGI: > 100 µM
[56]
  TGI: > 100 µM
[57]
  TGI: > 100 µM
[59]
  TGI: > 100 µM

## S=CN1CCCCC1
[1]
  TGI: > 100 µM
[2]
  TGI: > 100 µM
[3]
  TGI: > 100 µM
[4]
  TGI: > 100 µM
[5]
  TGI: > 100 µM
[7]
  TGI: > 100 µM
[8]
  TGI: > 100 µM
[9]
  TGI: > 100 µM
[10]
  TGI: > 100 µM
[11]
  TGI: > 100 µM
[12]
  TGI: > 100 µM
[13]
  TGI: > 100 µM
[14]
  TGI: > 100 µM
[15]
  TGI: > 100 µM
[16]
  TGI: > 100 µM
[17]
  TGI: > 100 µM
[18]
  TGI: > 100 µM
[19]
  TGI: > 100 µM
[20]
  TGI: > 100 µM
[21]
  TGI: > 100 µM
[22]
  TGI: > 100 µM
[23]
  TGI: > 100 µM
[24]
  TGI: > 100 µM
[25]
  TGI: > 100 µM
[26]
  TGI: > 100 µM
[27]
  TGI: > 100 µM
[29]
  TGI: > 100 µM
[30]
  TGI: > 100 µM
[31]
  TGI: > 100 µM
[32]
  TGI: > 100 µM
[33]
  TGI: > 100 µM
[35]
  TGI: > 100 µM
[36]
  TGI: > 100 µM
[37]
  TGI: > 100 µM
[38]
  TGI: > 100 µM
[39]
  TGI: > 100 µM
[40]
  TGI: > 100 µM
[41]
  TGI: > 100 µM
[42]
  TGI: > 100 µM
[43]
  TGI: > 100 µM
[44]
  TGI: > 100 µM
[45]
  TGI: > 100 µM
[46]
  TGI: > 100 µM
[47]
  TGI: > 100 µM
[48]
  TGI: > 100 µM
[49]
  TGI: > 100 µM
[50]
  TGI: > 100 µM
[51]
  TGI: > 100 µM
[52]
  TGI: > 100 µM
[53]
  TGI: > 100 µM
[54]
  TGI: > 100 µM
[55]
  TGI: > 100 µM
[56]
  TGI: > 100 µM
[57]
  TGI: > 100 µM
[58]
  TGI: > 100 µM
[59]
  TGI: > 100 µM

## Clc1ccc(-c2nn3c(CCCCCCCCc4nnc5sc(-c6ccc(Cl)cc6)nn45)nnc3s2)cc1
[1]
  TGI: 33.2 µM
[2]
  TGI: > 100 µM
[3]
  TGI: > 100 µM
[4]
  TGI: 34 µM
[5]
  TGI: 29.4 µM
[6]
  TGI: > 100 µM
[7]
  TGI: > 90.4 µM
[8]
  TGI: > 92.6 µM
[9]
  TGI: > 100 µM
[10]
  TGI: > 100 µM
[11]
  TGI: > 87.2 µM
[12]
  TGI: 39.8 µM
[13]
  TGI: > 74.3 µM
[14]
  TGI: 28.8 µM
[15]
  TGI: > 79.7 µM
[16]
  TGI: > 94.7 µM
[17]
  TGI: 75.3 µM
[18]
  TGI: > 90.4 µM
[19]
  TGI: > 100 µM
[20]
  TGI: > 100 µM
[21]
  TGI: > 100 µM
[22]
  TGI: 46.6 µM
[23]
  TGI: > 70.5 µM
[24]
  TGI: 61.3 µM
[25]
  TGI: 30.6 µM
[26]
  TGI: 75 µM
[27]
  TGI: > 85.9 µM
[28]
  TGI: > 64.6 µM
[29]
  TGI: 59 µM
[30]
  TGI: > 100 µM
[31]
  TGI: 60.3 µM
[32]
  TGI: 60 µM
[33]
  TGI: > 100 µM
[34]
  TGI: > 62.4 µM
[35]
  TGI: 24.5 µM
[36]
  TGI: > 94.8 µM
[37]
  TGI: > 100 µM
[38]
  TGI: 67.5 µM
[39]
  TGI: > 63.1 µM
[40]
  TGI: > 87.6 µM
[41]
  TGI: > 83 µM
[42]
  TGI: > 95.2 µM
[43]
  TGI: > 73.3 µM
[44]
  TGI: > 79.5 µM
[45]
  TGI: > 100 µM
[47]
  TGI: > 88 µM
[48]
  TGI: > 100 µM
[49]
  TGI: > 64.5 µM
[50]
  TGI: > 83.2 µM
[51]
  TGI: 72.2 µM
[52]
  TGI: 60.3 µM
[53]
  TGI: > 100 µM
[54]
  TGI: 69.7 µM
[55]
  TGI: > 61.4 µM
[56]
  TGI: 46.1 µM
[57]
  TGI: 52.6 µM
[58]
  TGI: > 100 µM
[59]
  TGI: > 100 µM
